Results published in US8288441B2, “Compositions comprising a physiological coolant” (Givaudan Nederland Services B.V., priority 2007, dated 2012).

System: forearm skin
Assay: Perception of cooling after applying aqueous ethanol solutions to the forearms of volunteers
Assay type: in vivo, human
Description: A simple aqueous ethanol solution (50:50) containing 1% by weight of lactoyl ethanolamide was applied to one forearm. The aqueous ethanol solution alone (control) was then applied to the other forearm at a similar dosage, and the perception of cooling from either arm noted. This was repeated on 10 volunteers in total.
(§1) A simple aqueous ethanol solution (50:50) containing 0.2% by weight of L-menthol and 1% by weight of lactoyl ethanolamide was applied to one forearm at a concentration of 2 drops per 10 square centimetres of skin. The aqueous ethanol solution containing just 0.2% by weight L-menthol was then applied to the other forearm at the same dose, and the perception of cooling from either arm noted. This was repeated on 10 volunteers.
as §1, with “and 0.5%” for “and 1%”, “containing” for “containing just”, “arm noted over 4 hours at 30 minute intervals.” for “arm noted.”, “on 12” for “on 10”
as §1, with “containing 1%” for “containing 0.2%”, “of menthyl lactate” for “of L-menthol”, “containing 1%” for “containing just 0.2%”, “weight menthyl lactate” for “weight L-menthol”, “arm noted over 4 hours at 30 minute intervals.” for “arm noted.”, “on 12” for “on 10”
as §1, with “1.0%” for “0.2%”, “menthone glyceryl ketal” for “L-menthol”, “0.5%” for “1%”, “1%” for “just 0.2%”, “noted over 4 hours at 1 hour intervals.” for “noted.”
(§2) A simple aqueous ethanol solution (50:50) containing 0.75% by weight of menthyl glyceryl ether and 0.5% by weight of lactoyl ethanolamide was applied to one forearm at a concentration of 2 drops per 10 square centimetres of skin. An aqueous ethanol solution containing 1% by weight menthyl glyceryl ether was then applied to the other forearm at the same dose, and the perception of cooling from either arm noted over a 4 hour period. This was repeated on 12 volunteers.
as §2, with “1%” for “0.75%”, “pyrrolidone carboxylate” for “glyceryl ether”, “dose” for “dose,”, “6” for “4”, “33” for “12”

[1] = Example 7, 1% menthyl pyrrolidone carboxylate + 0.5% lactoyl ethanolamide vs 1% menthyl pyrrolidone carboxylate alone, 6 hour period, 33 volunteers

CC(C)[C@@H]1CC[C@@H](C)C[C@H]1O [L-menthol]
period of time over which cooling was felt (Example 3, 0.2% L-menthol with or without 0.5% lactoyl ethanolamide, noted over 4 hours at 30 minute intervals, 12 volunteers): about 2 hours

CC(O)C(=O)NCCO (stereo not shown) [lactoyl ethanolamide, N-lactoyl ethanolamide]
cooling perception versus placebo solution (Example 1, 1% by weight lactoyl ethanolamide in aqueous ethanol (50:50) vs aqueous ethanol alone, other forearm, 10 volunteers): no difference in cooling perception | cooling perception versus coolant alone (Example 2, 0.2% L-menthol + 1% lactoyl ethanolamide vs 0.2% L-menthol alone, 2 drops per 10 square centimetres, 10 volunteers): higher cooling perception | level of cooling versus coolant alone [1]: higher level of cooling | time for which the improved cooling perception was sustained [1]: at least 6 hours

CC1CCC(C(C)C)C2(C1)OCC(CO)O2 (stereo not shown) [menthone glyceryl ketal]
period of time over which cooling was felt (Example 5, 1% menthone glyceryl ketal with or without 0.5% lactoyl ethanolamide, noted over 4 hours at 1 hour intervals, 10 volunteers): about 3 hours

CC1CCC(C(C)C)C(OC(=O)C(C)O)C1 (stereo not shown) [menthyl lactate]
period of time over which cooling was felt (Example 4, 1% menthyl lactate with or without 1% lactoyl ethanolamide, noted over 4 hours at 30 minute intervals, 12 volunteers): about 2 hours
